This note sets out measurements from ChEMBL document CHEMBL1177825, “Subtype-selectivity of metal-dependent methionine aminopeptidase inhibitors” (Bioorg Med Chem Lett, 2010).

Activity calls are given as the source filed them. The rule behind the calls is not given here.

The test system of one experiment is Escherichia coli. The experiment is described as follows: Inhibition of Escherichia coli MetAP at 25 uM.
The next experiment deals with Staphylococcus aureus. Nature of the experiment: Inhibition of Staphylococcus aureus MetAP at 25 uM.
For experiment [1], the target named is Methionine aminopeptidase 1 (Homo sapiens, UniProt P53582). The experiment is described as follows: Inhibition of human MetAP1.
In experiment [2] the target is Methionine aminopeptidase 2 (Homo sapiens, UniProt P50579). Nature of the experiment: Inhibition of human MetAP2 expressed in baculovirus infected Sf9 cells.
Chain of Methionine aminopeptidase 2 (P50579 whole entry): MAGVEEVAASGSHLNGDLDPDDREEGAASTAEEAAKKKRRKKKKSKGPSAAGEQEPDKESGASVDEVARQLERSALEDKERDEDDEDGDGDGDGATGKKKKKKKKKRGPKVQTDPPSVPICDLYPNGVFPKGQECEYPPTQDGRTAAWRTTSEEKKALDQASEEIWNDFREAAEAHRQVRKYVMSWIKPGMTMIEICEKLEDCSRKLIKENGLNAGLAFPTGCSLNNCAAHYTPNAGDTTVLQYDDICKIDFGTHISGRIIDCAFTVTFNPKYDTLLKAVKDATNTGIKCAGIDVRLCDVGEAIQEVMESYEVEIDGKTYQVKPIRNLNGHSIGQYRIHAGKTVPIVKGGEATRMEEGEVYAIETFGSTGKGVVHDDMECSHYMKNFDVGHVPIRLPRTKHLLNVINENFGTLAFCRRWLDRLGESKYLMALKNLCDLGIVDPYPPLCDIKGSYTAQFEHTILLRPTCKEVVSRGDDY
A short description of experiment [3]: Inhibition of Staphylococcus aureus MetAP.
Experiment [4] can be described thus: Inhibition of Escherichia coli MetAP.

Regarding `Cc1ccc(S(=O)(=O)Oc2cccc3cccnc23)cc1`, the inhibition entry with Escherichia coli and with Staphylococcus aureus was “inactive” throughout.

In the case of `c1ccc(-c2nc3ccccc3[nH]2)nc1`, the concentration for half-maximal inhibition (IC50) is 28.4 µM in experiment [1], 13.3 µM in experiment [2], 19.9 µM in experiment [3] and 570 nM in experiment [4]. For the same compound, the inhibition in the experiment with Staphylococcus aureus worked out at 56%.

On to `c1ccc2[nH]c(-c3cscn3)nc2c1` [THIABENDAZOLE], for which the half-inhibitory concentration (IC50) in experiment [1] amounted to 47.8 µM; in experiment [2] it was 44.7 µM; in experiment [4] it was 470 nM. Further, the inhibition with Escherichia coli amounted to 86.3%; in the experiment with Staphylococcus aureus, 28%.

Compound `Clc1ccc2nc(-c3ccccn3)[nH]c2c1` yielded an inhibition in the experiment with Staphylococcus aureus of 16%. In addition, the IC50 in experiment [4] was 1700 nM.

Turning to `Oc1cccc2cccnc12` [OXYQUINOLINE], the half-maximal inhibitory concentration (IC50) came out at 21.5 µM in experiment [1], 5.6 µM in experiment [2], 18.3 µM in experiment [3] and 770 nM in experiment [4]. Besides, the values for the inhibition with Escherichia coli and in the experiment on Staphylococcus aureus were 95% and 65%, respectively.

`Oc1cccnc1-c1nc2ccccc2[nH]1` gave an inhibition with Staphylococcus aureus of 97%. In addition, the IC50 in experiment [3] was 4.4 µM; in experiment [4], 780 nM.

As for `CC(C)(C)c1ccc2[nH]c(-c3ccccn3)nc2c1`, the inhibition in the experiment on Staphylococcus aureus was 40.9%. Also, the IC50 stood at 38.9 µM in experiment [3] and 2600 nM in experiment [4].

Take `CCCSc1ccc2[nH]c(NC(=O)OC)nc2c1`: the inhibition with Escherichia coli is 35%; in the experiment with Staphylococcus aureus it was 10.5%.

Compound `Cc1cc(NS(=O)(=O)c2ccccn2)no1` displayed an inhibition in the experiment on Escherichia coli of 21%. In addition, the inhibition result in the experiment with Staphylococcus aureus was “inactive”.

For the compound `O=S(=O)(Oc1cccc2cccnc12)c1ccccn1`, the inhibition in the experiment with Escherichia coli amounted to 38%. The inhibition entry with Staphylococcus aureus was “inactive”.

In the case of `c1cc2[nH]c(-c3cscn3)nc2cn1`, the inhibition in the experiment with Staphylococcus aureus was 32%. The IC50 in experiment [3] was 45.5 µM; in experiment [4], 1700 nM.

Turning to `Nc1ccc2[nH]c(-c3ccccn3)nc2c1`, in the experiment on Staphylococcus aureus, the inhibition came out at 92%. For the same compound, the figures for the IC50 in experiment [3] and in experiment [4] were 4.9 µM and 970 nM, respectively.

`Clc1ccc2[nH]c(-c3cscn3)nc2c1` displayed an inhibition with Staphylococcus aureus of 15%. In experiment [4], this compound yielded an IC50 of 5200 nM.

In the experiment on Escherichia coli, `COC(=O)Nc1nc2ccccc2[nH]1` came in with an inhibition of 34%. Also, the inhibition result in the experiment on Staphylococcus aureus is “inactive”.

As for `O=C(Nc1cccc2cccnc12)c1ccccc1`, the inhibition entry in the experiment on Escherichia coli and in the experiment with Staphylococcus aureus was “inactive” in each case.

In turn, `c1ccc(-c2nc3cc[nH]cc-3n2)nc1` came in with an inhibition in the experiment with Staphylococcus aureus of 55%. Further, the results for the IC50 in experiment [3] and in experiment [4] were 22.8 µM and 550 nM, respectively.

Take `O=C(Oc1cccc2cccnc12)c1ccccc1` [BENZOXIQUINE]: the half-inhibitory concentration (IC50) in experiment [2] amounted to 34.8 µM. Moreover, the inhibition in the experiment with Escherichia coli amounted to 32%; with Staphylococcus aureus, 10%.

The compound `Cc1cc2nc(-c3cscn3)[nH]c2cc1C` gave an inhibition with Staphylococcus aureus of 17%. Further, the IC50 in experiment [4] stood at 10000 nM.

Compound `c1ccc(-c2nc3ccc[nH]c-3n2)nc1` returned an inhibition in the experiment on Staphylococcus aureus of 76%. Further, the half-maximal inhibitory concentration (IC50) came to 18.8 µM in experiment [3] and 110 nM in experiment [4].

`N/C(S)=N/c1nc2ccccc2[nH]1` displayed an inhibition with Staphylococcus aureus of 31%. In addition, the concentration for half-maximal inhibition (IC50) in experiment [3] was determined as 35.9 µM; in experiment [4], 9000 nM.

`c1cc2nc(-c3cscn3)[nH]c2cn1`: in experiment [1], the IC50 is 19 µM. This counts as double-digit micromolar.

In the case of `Cc1ccc2nc(-c3ccccn3)[nH]c2c1`, the inhibition in the experiment on Staphylococcus aureus stood at 68%. In addition, the half-inhibitory concentration (IC50) in experiment [3] is 19.4 µM; in experiment [4] it was 2100 nM.

Regarding `c1coc(-c2nc3ccccc3[nH]2)c1`, the values for the inhibition in the experiment with Escherichia coli and with Staphylococcus aureus were 26% and 10%, respectively.

The compound `Cc1ccc2[nH]c(-c3ccccn3)nc2c1` gave an IC50 in experiment [2] of 7.7 µM.

On to `CC(C)(C)c1ccc2[nH]c(-c3cscn3)nc2c1`, for which the inhibition with Staphylococcus aureus was determined as 30.2%. Also, the results for the half-inhibitory concentration (IC50) in experiment [3] and in experiment [4] were 41.7 µM and 3900 nM, respectively.

In turn, `COC(=O)Nc1nc2cc(C(=O)c3ccccc3)ccc2[nH]1` came in with an inhibition with Escherichia coli of 47%. Moreover, the inhibition result with Staphylococcus aureus was “inactive”.

With `O=[N+]([O-])c1ccc2nc(-c3cscn3)[nH]c2c1`, the IC50 in experiment [1] came to 48.5 µM.

Take `O=[N+]([O-])c1ccc2[nH]c(-c3ccccn3)nc2c1`: the IC50 was determined as 28.8 µM in experiment [1] and 160 nM in experiment [4]. Also, the inhibition entry in the experiment with Staphylococcus aureus is “inactive”.

Regarding `O=S(=O)(Oc1cccc2cccnc12)c1ccccc1`, in the experiment with Escherichia coli, the inhibition result is “inactive”. In the experiment on Staphylococcus aureus, this compound returned an inhibition of 62%. In experiment [3], this compound displayed a concentration for half-maximal inhibition (IC50) of 16 µM.

In the experiment on Staphylococcus aureus, `Fc1ccc2nc(-c3ccccn3)[nH]c2c1` yielded an inhibition of 31%. Moreover, the results for the IC50 in experiment [3] and in experiment [4] were 40.1 µM and 1500 nM, respectively.

In the case of `O=S(=O)(Nc1cccc2cccnc12)c1ccccc1`, the figures for the half-maximal inhibitory concentration (IC50) in experiment [2], in experiment [3] and in experiment [4] were 39.8 µM, 22.9 µM and 11000 nM, respectively. Further, the inhibition in the experiment on Escherichia coli was 93%; in the experiment on Staphylococcus aureus, 47%.

Compound `c1ccc2[nH]c(Nc3nccs3)nc2c1` registered an inhibition with Staphylococcus aureus of 52%. The values for the 50% inhibitory concentration (IC50) in experiment [3] and in experiment [4] were 22.4 µM and 540 nM, respectively.

In the case of `c1cncc(-c2nc3ccccc3[nH]2)c1`, the inhibition result with Escherichia coli was “inactive”. This compound returned an inhibition in the experiment on Staphylococcus aureus of 20%.

`c1ccc(-c2nc3ncc[nH]c-3n2)nc1` registered an inhibition with Staphylococcus aureus of 51%. The 50% inhibitory concentration (IC50) stood at 22 µM in experiment [3] and 240 nM in experiment [4].

`Nc1ccc2[nH]c(-c3cscn3)nc2c1` returned an inhibition in the experiment on Staphylococcus aureus of 92%. The IC50 in experiment [3] was determined as 2.3 µM; in experiment [4], 3400 nM.

For the compound `c1ccc(-c2nc3c[nH]cnc-3n2)nc1`, in the experiment on Staphylococcus aureus, the inhibition worked out at 18%. 380 nM corresponded to half-maximal inhibition in experiment [4] (IC50).

Take `O=C(Nc1nccs1)c1ccc([N+](=O)[O-])cc1`: the inhibition entry in the experiment on Escherichia coli and with Staphylococcus aureus was “inactive” each time.

For `c1ccc(Cn2c(-c3ccccn3)nc3ccccc32)cc1`, the inhibition result with Staphylococcus aureus was “inactive”. The same compound returned a half-inhibitory concentration (IC50) in experiment [4] of 990 nM.

`N#Cc1ccc2[nH]c(-c3ccccn3)nc2c1`: the inhibition in the experiment with Staphylococcus aureus amounted to 29%. Further, the half-inhibitory concentration (IC50) in experiment [3] came out at 33 µM; in experiment [4], 430 nM.

For `Cc1cc2nc(-c3ccccn3)[nH]c2cc1C`, the inhibition in the experiment on Staphylococcus aureus is 87%. In addition, the results for the half-maximal inhibitory concentration (IC50) in experiment [3] and in experiment [4] were 17.9 µM and 2400 nM, respectively.

With `COC(=O)Nc1nc2cc(Sc3ccccc3)ccc2[nH]1`, the inhibition entry with Escherichia coli was “inactive”. In the experiment on Staphylococcus aureus, this compound yielded an inhibition of 12.5%.

With `Oc1ccccc1-c1nc2ccccc2[nH]1`, the inhibition in the experiment with Escherichia coli is 66%; in the experiment with Staphylococcus aureus, 12%.

Consider `O=C(Nc1nccs1)c1ccccn1`, for which the 50% inhibitory concentration (IC50) in experiment [1] is 8.1 µM; in experiment [2] it was 25.8 µM; in experiment [3] it was 21.2 µM; in experiment [4], 60 nM. The inhibition in the experiment with Escherichia coli turned out to be 100%; with Staphylococcus aureus, 58%.

Regarding `Nc1ccc2nc(-c3ccccn3)[nH]c2c1`, the midpoint of inhibition in experiment [2], the IC50, lay at 9.3 µM.

In the case of `c1ccc2[nH]c(-c3cnccn3)nc2c1`, the inhibition entry with Staphylococcus aureus was “inactive”. Besides, the half-inhibitory concentration (IC50) in experiment [4] was 4600 nM.

For the compound `O=S(=O)(Nc1nccs1)c1ccccn1`, the inhibition in the experiment with Escherichia coli is 23%.

In the case of `Cc1cc(NC(=O)c2ccccn2)no1`, the inhibition amounted to 80% in the experiment with Escherichia coli and 20% in the experiment with Staphylococcus aureus. The compound also showed a 50% inhibitory concentration (IC50) in experiment [4] of 2800 nM.

For the compound `Oc1cccc(-c2nc3ccccc3[nH]2)n1`, the inhibition in the experiment on Staphylococcus aureus is 47%. The IC50 in experiment [3] was determined as 29.2 µM; in experiment [4], 1300 nM.

In the case of `c1cnc2nc(-c3nccs3)[nH]c2c1`, the inhibition in the experiment with Staphylococcus aureus is 21%. Further, the half-maximal inhibitory concentration (IC50) in experiment [4] worked out at 80 nM.

`c1csc(-c2nc3ccccc3[nH]2)c1`: the inhibition entry with Escherichia coli and in the experiment on Staphylococcus aureus was “inactive” in each case.

As usually defined, the inhibition is the drop in the measured response relative to a control, in per cent. As a reminder, the IC50 is the midpoint of a concentration-inhibition curve. Read a low IC50 as greater potency.
